Numbered stars: 1 amine (or outer) side, 2 acyl side, 3 side chain; on linkers, the order of the positions; unused ones are H or OH. Bridge positions count the residues as written; N and C are the ends. Square brackets hold non-standard residues; d marks the D form. Peptide text beside a SMILES is read from it. * marks the point of attachment. 2Thenoyl(5-Cl) = O=C(c1ccc(Cl)s1)*; Benzoyl(4-Cl) = O=C(c1ccc(Cl)cc1)*; Cysteamide = C(CS[*:3])N[*:1]; X1 = O=C(/C=C/c1ccccc1)*; Api = NC1(C(=O)O)CCNCC1; Dap = NC[CH](N)C(=O)O; Mpa = O=C(O)CCS

In the assay the target is MDM2 (Homo sapiens, UniProt Q00987). The experiment in a line: MDM2 binding screen: displacement of fluorescent p53 peptide probe FP53 (fluorescence polarization). Particulars: for fraction fluorescent probe displaced, Screen: initial screen; for fraction fluorescent probe displaced, Screen / fraction fluorescent probe displaced, Replicate: crude macrocycle reactions; for fraction fluorescent probe displaced: crude reaction of macrocycle scaffold with Acid 14. The essentials:
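Single-point screen: one fluorescence anisotropy reading at 25 °C (485 nm excitation, 535 nm emission) per macrocycle. Crude macrocycle reactions, final 10 µM, were scored for displacing the fluorescent p53 peptide from human MDM2.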
For orientation: In fluorescence polarisation assays a small probe gives low polarisation when free and higher when bound to something large.

Sequence of MDM2 (Q00987 whole entry): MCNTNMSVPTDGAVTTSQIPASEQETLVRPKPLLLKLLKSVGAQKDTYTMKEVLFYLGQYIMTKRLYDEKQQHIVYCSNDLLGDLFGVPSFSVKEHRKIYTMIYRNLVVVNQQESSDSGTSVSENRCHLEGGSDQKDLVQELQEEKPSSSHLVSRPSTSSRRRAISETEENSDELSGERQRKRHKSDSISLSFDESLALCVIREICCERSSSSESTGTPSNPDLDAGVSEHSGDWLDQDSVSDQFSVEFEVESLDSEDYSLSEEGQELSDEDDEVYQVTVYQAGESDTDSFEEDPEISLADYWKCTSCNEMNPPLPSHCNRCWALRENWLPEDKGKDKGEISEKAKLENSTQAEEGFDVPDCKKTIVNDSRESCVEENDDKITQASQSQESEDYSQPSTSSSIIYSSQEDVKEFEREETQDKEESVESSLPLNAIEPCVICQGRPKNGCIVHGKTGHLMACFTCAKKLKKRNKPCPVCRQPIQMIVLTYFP

With `O=C1CCSSCCNC(=O)c2cccc(c2)CNC(=O)[C@H](Cc2c[nH]c3ccccc23)NC(=O)C2(CCN(C(=O)/C=C/c3ccccc3)CC2)N1` [X D6 W B5 Acid 91], the “fraction fluorescent probe displaced, Screen” value (Acid 91) is listed as -0.05. In addition, the “fraction fluorescent probe displaced, Replicate” value (Acid 91, replicate) is 0.07.

Turning to `O=C1NCCSSCCC(=O)N2CCN(C(=O)c3ccc(Cl)cc3)CC2C(=O)N2CCCC2C(=O)NC1Cc1ccccc1` (stereo not shown) [X D7 B1 F Acid 25], for the setting “Acid 25”, the “fraction fluorescent probe displaced, Screen” value is 0.0569. In addition, the “fraction fluorescent probe displaced, Replicate” value (Acid 25, replicate) came to 0.12.

For the compound `O=C1NCCSSCCC(=O)N2CCN(C(=O)c3ccc(Cl)s3)CC2C(=O)N2CCCC2C(=O)NC1Cc1c[nH]c2ccccc12` (stereo not shown) [X D7 B1 W Acid 14], the “fraction fluorescent probe displaced, Screen” value (Acid 14) is on record as -0.00483. In addition, the “fraction fluorescent probe displaced, Replicate” value (Acid 14, replicate) stood at 0.07.

Consider `O=C1CCNC(=O)C2CN(C(=O)c3ccc(Cl)s3)CCN2C(=O)CCSSCCNC(=O)C(Cc2c[nH]c3ccccc23)N1` (stereo not shown) [X D7 B2 W Acid 14], for which the “fraction fluorescent probe displaced, Screen” value (Acid 14) is given as 0.11. Moreover, the “fraction fluorescent probe displaced, Replicate” value (Acid 14, replicate) is 0.12.

Consider `O=C1CCNC(=O)C2CN(C(=O)C=Cc3ccccc3)CCN2C(=O)CCSSCCNC(=O)C(Cc2c[nH]c3ccccc23)N1` (stereo not shown) [X D7 B2 W Acid 91], for which the “fraction fluorescent probe displaced, Screen” value (Acid 91) worked out at 0.11. Further, where the note is “Acid 91, replicate”, the “fraction fluorescent probe displaced, Replicate” value was 0.07.

In the case of `O=C1NC(Cc2ccccc2)C(=O)NCCSSCCC(=O)N2CCN(C(=O)c3ccc(Cl)s3)CC2C(=O)N2CCCC1C2` (stereo not shown) [X D7 B4 F + Acid 14], the “fraction fluorescent probe displaced” value is -0.0337 ((initial screen)) and 0.07 (replicate).

Regarding `O=C1NC(Cc2c[nH]c3ccccc23)C(=O)NCCSSCCC(=O)N2CCN(C(=O)C=Cc3ccccc3)CC2C(=O)N2CCCC1C2` (stereo not shown) [X D7 B4 W Acid 91], the “fraction fluorescent probe displaced, Screen” value (Acid 91) is 0.08. In addition, the “fraction fluorescent probe displaced, Replicate” value (Acid 91, replicate) is listed as 0.07.

For `O=C1NC(Cc2ccccc2)C(=O)NCCSSCCC(=O)N2CCN(C(=O)c3ccc(Cl)cc3)CC2C(=O)NCc2cccc1c2` (stereo not shown) [X D7 B5 F Acid 25], under “Acid 25”, the “fraction fluorescent probe displaced, Screen” value is reported as -0.04. For the setting “Acid 25, replicate”, the “fraction fluorescent probe displaced, Replicate” value is on record as 0.12.

In the case of `O=C1NC(Cc2c[nH]c3ccccc23)C(=O)NCCSSCCC(=O)N2CCN(C(=O)c3ccc(Cl)cc3)CC2C(=O)NCc2cccc1c2` (stereo not shown) [X D7 B5 W Acid 25], the “fraction fluorescent probe displaced, Screen” value (Acid 25) amounted to 0.22. Also, under “Acid 25, replicate”, the “fraction fluorescent probe displaced, Replicate” value came to 0.20.

As for `O=C1NC(Cc2ccccc2)C(=O)N2CCCC2C(=O)NCCSSCCC(=O)N2CCN(C(=O)c3ccc(Cl)cc3)CC12` (stereo not shown) [X D7 F B1 Acid 25], the “fraction fluorescent probe displaced, Screen” value (Acid 25) worked out at 0.09. Moreover, the “fraction fluorescent probe displaced, Replicate” value (Acid 25, replicate) was found to be 0.07.

With `O=C1CCNC(=O)C(Cc2ccccc2)NC(=O)C2CN(C(=O)c3ccc(Cl)cc3)CCN2C(=O)CCSSCCN1` (stereo not shown) [X D7 F B2 Acid 25], where the note is “Acid 25”, the “fraction fluorescent probe displaced, Screen” value was -0.00813. For the same compound, the “fraction fluorescent probe displaced, Replicate” value (Acid 25, replicate) is 0.07.

Regarding `O=C1NCCSSCCC(=O)N2CCN(C(=O)c3ccc(Cl)s3)CC2C(=O)NC(Cc2ccccc2)C(=O)N2CCCC1C2` (stereo not shown) [X D7 F B4 + Acid 14], the “fraction fluorescent probe displaced” value is listed as 0.0241 ((initial screen)) and -0.00432 (replicate).

In the case of `O=C1NCCSSCCC(=O)N2CCN(C(=O)c3ccc(Cl)cc3)CC2C(=O)NC(Cc2ccccc2)C(=O)NCc2cccc1c2` (stereo not shown) [X D7 F B5 Acid 25], the “fraction fluorescent probe displaced, Screen” value (Acid 25) was found to be 0.12. The “fraction fluorescent probe displaced, Replicate” value (Acid 25, replicate) amounted to 0.43.

Take `O=C1NCCSSCCC(=O)N2CCN(C(=O)C=Cc3ccccc3)CC2C(=O)NC(Cc2ccccc2)C(=O)NCc2cccc1c2` (stereo not shown) [X D7 F B5 Acid 91]: the “fraction fluorescent probe displaced, Screen” value (Acid 91) is 0.0563. Further, the “fraction fluorescent probe displaced, Replicate” value (Acid 91, replicate) is on record as 0.04.

Consider `O=C1NC(Cc2c[nH]c3ccccc23)C(=O)N2CCCC2C(=O)NCCSSCCC(=O)N2CCN(C(=O)C=Cc3ccccc3)CC12` (stereo not shown) [X D7 W B1 Acid 91], for which the “fraction fluorescent probe displaced, Screen” value (Acid 91) is listed as -0.0241. Where the note is “Acid 91, replicate”, the “fraction fluorescent probe displaced, Replicate” value is -0.00827.

Consider `O=C1CCNC(=O)C(Cc2c[nH]c3ccccc23)NC(=O)C2CN(C(=O)c3ccc(Cl)s3)CCN2C(=O)CCSSCCN1` (stereo not shown) [X D7 W B2 Acid 14], for which, where the note is “Acid 14”, the “fraction fluorescent probe displaced, Screen” value is on record as 0.11. The “fraction fluorescent probe displaced, Replicate” value (Acid 14, replicate) is 0.10.

As for `O=C1CCNC(=O)C(Cc2c[nH]c3ccccc23)NC(=O)C2CN(C(=O)c3ccc(Cl)cc3)CCN2C(=O)CCSSCCN1` (stereo not shown) [X D7 W B2 Acid 25], the “fraction fluorescent probe displaced, Screen” value (Acid 25) was determined as 0.22. The “fraction fluorescent probe displaced, Replicate” value (Acid 25, replicate) was found to be 0.17.

As to `O=C1NCCSSCCC(=O)N2CCN(C(=O)C=Cc3ccccc3)CC2C(=O)NC(Cc2c[nH]c3ccccc23)C(=O)N2CCCC1C2` (stereo not shown) [X D7 W B4 Acid 91], the “fraction fluorescent probe displaced, Screen” value (Acid 91) was found to be 0.03. In addition, under “Acid 91, replicate”, the “fraction fluorescent probe displaced, Replicate” value was determined as 0.04.

In the case of `O=C1CCSSCCNC(=O)C(CNC(=O)c2ccc(Cl)s2)NC(=O)C2CCCN2C(=O)C(Cc2ccccc2)N1` (stereo not shown) [X F B1 D3 Acid 14] ([Mpa]FP[Dap](2Thenoyl(5-Cl))-Cysteamide; disulfide 1-C; configuration not given here), under “Acid 14”, the “fraction fluorescent probe displaced, Screen” value was found to be 0.17. In addition, the “fraction fluorescent probe displaced, Replicate” value (Acid 14, replicate) is given as 0.07.

On to `O=C1CCSSCCNC(=O)C(CNC(=O)c2ccc(Cl)cc2)NC(=O)C2CCCN2C(=O)C(Cc2ccccc2)N1` (stereo not shown) [X F B1 D3 Acid 25] ([Mpa]FP[Dap](Benzoyl(4-Cl))-Cysteamide; disulfide 1-C; configuration not given here), for which the “fraction fluorescent probe displaced, Screen” value (Acid 25) is 0.12. Besides, the “fraction fluorescent probe displaced, Replicate” value (Acid 25, replicate) was 0.22.

`O=C(/C=C/c1ccccc1)NC[C@@H]1NC(=O)[C@@H]2CCCN2C(=O)[C@H](Cc2ccccc2)NC(=O)CCSSCCNC1=O` [X F B1 D3 Acid 91] ([Mpa]FP[Dap](X1)-Cysteamide; disulfide 1-C): for the setting “Acid 91”, the “fraction fluorescent probe displaced, Screen” value was determined as 0.08. For the same compound, the “fraction fluorescent probe displaced, Replicate” value (Acid 91, replicate) came out at 0.04.

Take `O=C1CCSSCCNC(=O)C2(CCN(C(=O)c3ccc(Cl)cc3)CC2)NC(=O)[C@@H]2CCCN2C(=O)[C@H](Cc2ccccc2)N1` [X F B1 D6 Acid 25] ([Mpa]FP[Api](Benzoyl(4-Cl))-Cysteamide; disulfide 1-C): the “fraction fluorescent probe displaced, Screen” value (Acid 25) turned out to be 0.22. Further, the “fraction fluorescent probe displaced, Replicate” value (Acid 25, replicate) is 0.10.

For the compound `O=C1CCSSCCNC(=O)C2(CCN(C(=O)/C=C/c3ccccc3)CC2)NC(=O)[C@@H]2CCCN2C(=O)[C@H](Cc2ccccc2)N1` [X F B1 D6 Acid 91] ([Mpa]FP[Api](X1)-Cysteamide; disulfide 1-C), the “fraction fluorescent probe displaced, Screen” value (Acid 91) is -0.05. Where the note is “Acid 91, replicate”, the “fraction fluorescent probe displaced, Replicate” value worked out at 0.0168.

For `O=C1CCNC(=O)[C@H](Cc2ccccc2)NC(=O)CCSSCCNC(=O)[C@H](CNC(=O)c2ccc(Cl)s2)N1` [X F B2 D3 Acid 14], under “Acid 14”, the “fraction fluorescent probe displaced, Screen” value stood at 0.14. Further, the “fraction fluorescent probe displaced, Replicate” value (Acid 14, replicate) was 0.12.

For the compound `O=C1CCNC(=O)C(Cc2ccccc2)NC(=O)CCSSCCNC(=O)C(CNC(=O)c2ccc(Cl)cc2)N1` (stereo not shown) [X F B2 D3 Acid 25], the “fraction fluorescent probe displaced, Screen” value (Acid 25) is listed as 0.22. Further, the “fraction fluorescent probe displaced, Replicate” value (Acid 25, replicate) is 0.17.

For the compound `O=C(/C=C/c1ccccc1)NC[C@@H]1NC(=O)CCNC(=O)[C@H](Cc2ccccc2)NC(=O)CCSSCCNC1=O` [X F B2 D3 Acid 91], the “fraction fluorescent probe displaced, Screen” value (Acid 91) is 0.03. Moreover, the “fraction fluorescent probe displaced, Replicate” value (Acid 91, replicate) is reported as 0.04.

Source of the values: paper PMC9250534, “Synthesis and direct assay of large macrocycle diversities by combinatorial late-stage modification at picomole scale” (Nature Communications, 2022).
